From the supplement of paper PMC10132981, “Formate overflow drives toxic folate trapping in MTHFD1 inhibited cancer cells” (Nature Metabolism, 2023)

Tests used:
[1] = system: HCT116; assay: EC50 for viability (resazurin, 96 h); conditions: RPMI+GlutaMAX (10% FBS, 1% P/S)
[2] = system: SW620; assay: EC50 for viability (resazurin, 96 h); conditions: RPMI+GlutaMAX (10% FBS, 1% P/S)
[3] = system: SW620; assay: cell viability relative to lowest-dose well (resazurin, 96 h); higher = more viable; conditions: RPMI + 10% FBS
Procedure, shortened: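 HCT116 (500 cells/well) or SW620 (1,000 cells/well) cells were seeded in 50 µl RPMI with 10% FBS plus a metabolite supplement in 384-well plates. Compounds were dispensed from 10 mM DMSO stocks as dilution series, and plates were incubated 96 h at 37 °C, 5% CO2. Viability was read as resazurin (10 µg ml^−1) conversion to resorufin after 5 h, by fluorescence at 595 nm. Values are percent of the lowest-dose well, with independent replicate cultures. Viability was read by resazurin-to-resorufin conversion and normalised to the lowest-dose vehicle well (=100%).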

O=c1[nH]cc(F)c(=O)[nH]1 [5-fluorouracil]
EC50 for viability [µM]
Conditions | metabolite supplement: Folic acid | metabolite supplement: Folinic acid | metabolite supplement: Hypoxanthine | metabolite supplement: Thymidine | metabolite supplement: Thymidine + Folic acid | metabolite supplement: Thymidine + Folinic acid | metabolite supplement: Thymidine + Hypoxanthine | metabolite supplement: Vehicle
[1] | – | – | 3.08 | 2.22 | – | – | 3.29 | –
[2] | 4.72 | 4.28 | 7.63 | 4.39 | 4.5 | 4.32 | 7.42 | 5.04

cell viability [%], [3]
Conditions | metabolite supplement: 50uM thymidine | metabolite supplement: 50uM thymidine + 250uM hypoxanthine | metabolite supplement: 250uM hypoxanthine | metabolite supplement: vehicle
0.0001 M | 6.17 | 8.1 | 8.23 | 7.07
0.001 µM | 100 | 100 | 100 | 100
0.01 µM | 103 | 99.7 | 103 | 104
0.0278 µM | 99.6 | 99.4 | 102 | 101
0.0774 µM | 97.9 | 101 | 98 | 102
0.215 µM | 94.8 | 99.9 | 99.2 | 100
0.599 µM | 93.3 | 97.1 | 101 | 99.9
1.67 µM | 77.5 | 87.9 | 92 | 84.1
4.64 µM | 52.2 | 65.6 | 66.7 | 56.8
12.9 µM | 26.5 | 37 | 38.5 | 30.8
35.9 µM | 11.9 | 16 | 16.8 | 13.2
